Measured values published in ChEMBL document CHEMBL1201862, “PubChem BioAssay data set” (2004).
Calls of active or inactive are those of the source. Cut-off read from the data, not from the text of the source, for most assays here: actives have a measured EC50 and inactives only a lower limit.

Key:
[1] = system: Streptococcus sp. 'group A'; assay: growth inhibition of control SK(-) GAS strain, dose response, counter-screen for streptokinase expression inhibitor project, luminescence, kanamycin, BacTiterGlo, confirmation (AID 1900); assay type: functional, organism-based
Streptokinase A = target: T1, Streptokinase A (Streptococcus pyogenes serotype M1, UniProt P10520); assay: S. pyogenes streptokinase expression inhibitors, potency, dose response, plasminogen activation absorbance, OD405 (AID 1914); assay type: functional, Streptococcus pyogenes M1 GAS;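 note: secreted streptokinase activity via plasminogen activation per viability signal from cell pellet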
T1 sequence (P10520 whole entry): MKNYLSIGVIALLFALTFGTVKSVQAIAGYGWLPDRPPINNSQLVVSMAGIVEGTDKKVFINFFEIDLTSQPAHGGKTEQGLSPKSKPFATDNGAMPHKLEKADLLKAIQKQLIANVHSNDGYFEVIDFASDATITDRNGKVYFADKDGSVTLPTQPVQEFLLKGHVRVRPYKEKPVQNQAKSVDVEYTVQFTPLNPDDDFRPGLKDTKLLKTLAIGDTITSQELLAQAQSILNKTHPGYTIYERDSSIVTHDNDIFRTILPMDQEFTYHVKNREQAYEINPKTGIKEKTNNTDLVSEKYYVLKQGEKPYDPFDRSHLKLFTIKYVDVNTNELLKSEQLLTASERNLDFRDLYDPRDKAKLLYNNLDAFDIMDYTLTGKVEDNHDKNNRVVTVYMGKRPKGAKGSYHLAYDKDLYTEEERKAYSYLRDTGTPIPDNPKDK

Streptococcus = assay: Group A Streptococcus viability loss, dose response, counter-screen for streptokinase expression inhibitor project, luminescence, BacTiterGlo (AID 1915); assay type: functional, organism-based;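 note: potency for reduction of bacterial viability or growth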
[2] = Luminescence Cell-Based Dose Retest to Confirm Inhibitors of Cancer Stem Cells. [Related pubchem assays (depositor defined):AID2717, AID2721]; assay type: functional; conditions: Homo sapiens
[3] = target: T2, Replicative DNA helicase DnaB (Mycobacterium tuberculosis, UniProt P9WMR3); assay: DnaB intein splicing inhibitors, dose response, biochemical, cell-free fluorescence (AID 449749); assay type: functional
T2 sequence (P9WMR3 whole entry): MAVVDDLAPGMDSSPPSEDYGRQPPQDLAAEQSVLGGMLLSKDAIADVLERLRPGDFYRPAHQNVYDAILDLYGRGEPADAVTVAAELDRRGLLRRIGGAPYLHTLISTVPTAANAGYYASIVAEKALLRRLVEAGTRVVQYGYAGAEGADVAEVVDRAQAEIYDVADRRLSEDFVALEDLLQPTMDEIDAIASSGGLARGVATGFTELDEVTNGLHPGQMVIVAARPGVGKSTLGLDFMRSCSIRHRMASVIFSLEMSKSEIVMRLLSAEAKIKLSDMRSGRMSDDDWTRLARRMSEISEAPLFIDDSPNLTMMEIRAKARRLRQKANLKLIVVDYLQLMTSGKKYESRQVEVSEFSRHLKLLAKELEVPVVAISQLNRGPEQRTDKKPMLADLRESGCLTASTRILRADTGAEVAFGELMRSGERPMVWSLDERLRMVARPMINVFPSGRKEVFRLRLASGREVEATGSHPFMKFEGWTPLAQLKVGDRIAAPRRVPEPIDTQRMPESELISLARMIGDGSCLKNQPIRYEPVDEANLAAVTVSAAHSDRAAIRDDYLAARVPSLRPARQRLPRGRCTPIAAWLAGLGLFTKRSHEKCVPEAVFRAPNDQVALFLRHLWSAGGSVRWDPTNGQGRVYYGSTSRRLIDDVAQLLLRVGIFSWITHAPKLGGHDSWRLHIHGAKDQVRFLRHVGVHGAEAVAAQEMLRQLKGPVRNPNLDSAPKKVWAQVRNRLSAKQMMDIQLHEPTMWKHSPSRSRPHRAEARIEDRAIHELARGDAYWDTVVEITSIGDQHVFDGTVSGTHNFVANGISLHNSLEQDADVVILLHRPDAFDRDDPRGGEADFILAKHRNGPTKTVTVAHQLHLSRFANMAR

Protein RecA = target: T3, Protein RecA (Mycobacterium tuberculosis, UniProt P9WHJ3); assay: Fluorescence Cell-Free Homogeneous Dose Retest to Identify Inhibitors of RecA-Intein Splicing Activity. [Related pubchem assays (depositor defined):AID2097, AID2223, AID489010, AID492950]; assay type: functional
T3 sequence (P9WHJ3 whole entry): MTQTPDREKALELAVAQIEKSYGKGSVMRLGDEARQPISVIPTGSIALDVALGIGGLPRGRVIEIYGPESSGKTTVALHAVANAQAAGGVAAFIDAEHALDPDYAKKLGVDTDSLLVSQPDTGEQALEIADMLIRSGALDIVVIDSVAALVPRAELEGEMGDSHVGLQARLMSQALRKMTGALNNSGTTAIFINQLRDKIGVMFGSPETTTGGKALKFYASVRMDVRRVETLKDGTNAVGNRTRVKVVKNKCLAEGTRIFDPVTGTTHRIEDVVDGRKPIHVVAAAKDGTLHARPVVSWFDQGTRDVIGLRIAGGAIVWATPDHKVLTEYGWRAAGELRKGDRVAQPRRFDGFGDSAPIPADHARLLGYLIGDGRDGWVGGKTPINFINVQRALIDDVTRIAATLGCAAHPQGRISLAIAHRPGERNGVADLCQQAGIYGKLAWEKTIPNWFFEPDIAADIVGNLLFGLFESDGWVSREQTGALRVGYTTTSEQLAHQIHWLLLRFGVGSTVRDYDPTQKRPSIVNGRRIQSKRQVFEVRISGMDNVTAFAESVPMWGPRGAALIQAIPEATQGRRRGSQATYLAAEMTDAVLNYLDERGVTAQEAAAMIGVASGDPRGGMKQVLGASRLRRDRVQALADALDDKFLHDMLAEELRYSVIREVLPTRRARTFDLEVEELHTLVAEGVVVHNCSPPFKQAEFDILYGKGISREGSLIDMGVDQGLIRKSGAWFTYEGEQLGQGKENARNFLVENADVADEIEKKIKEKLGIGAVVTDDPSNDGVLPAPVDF

[4] = microbe, parasite or virus in culture; assay type: functional; conditions: Mycobacterium tuberculosis
[5] = target: T4, Carboxy-terminal domain RNA polymerase II polypeptide A small phosphatase 1 (Homo sapiens, UniProt Q9GZU7); assay: inhibitors of CTDSP1, concentration-response testing, biochemical assay, absorbance-based, actives from ultra-high-throughput screening (AID 540297); assay type: functional
T4 sequence (Q9GZU7 whole entry): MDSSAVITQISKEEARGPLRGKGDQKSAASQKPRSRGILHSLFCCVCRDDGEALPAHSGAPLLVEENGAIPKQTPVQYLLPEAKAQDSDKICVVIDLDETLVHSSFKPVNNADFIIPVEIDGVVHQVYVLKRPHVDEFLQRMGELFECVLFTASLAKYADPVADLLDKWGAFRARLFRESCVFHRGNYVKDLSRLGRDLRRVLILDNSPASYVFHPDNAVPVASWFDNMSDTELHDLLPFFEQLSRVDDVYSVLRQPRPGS

Nonstructural protein 1 = Nonstructural protein 1 (Influenza A virus, UniProt Q194T2); assay type: functional, Influenza A virus (A/California/07/2009(H1N1))
Cytochrome P450 3A4 = Cytochrome P450 3A4 (Homo sapiens, UniProt P08684);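 note: CYP3A4 tested as one member of a cytochrome P450 panel screen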
[6] = inhibitors of firefly luciferase expression or activity, dose response, H4 neuroglioma cells, luminescence (AID 1990); assay type: functional, cell-based
[7] = Luminescence Cell-Based Dose Response HTS to Identify Inhibitors of 5'UTR Stem-Loop Driven Prion Protein mRNA Translation in H4 Neuroglioblastoma Cells. [Related pubchem assays: 1827 (Project Summary), 1813 (Primary HTS)]; assay type: functional
[8] = inhibitors of SNCA 5'UTR-driven reporter translation, confirmation, H4 neuroglioma cells, luminescence (AID 1988); assay type: functional, cell-based
[9] = target: T5, Heat shock factor protein 1 (Mus musculus, UniProt P38532); assay: HSF1 potentiators in luciferase reporter cells, confirmation, cell-based, NIH3T3, luminescence, dose retest (AID 435004); assay type: functional;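 note: stress induced by proteasome inhibitor MG132 added 30 min after compound; luciferase reporter driven by HSF1 response element in NIH3T3 cells; actives raise luminescence as potentiators of the MG132 stress response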
T5 sequence (P38532 whole entry): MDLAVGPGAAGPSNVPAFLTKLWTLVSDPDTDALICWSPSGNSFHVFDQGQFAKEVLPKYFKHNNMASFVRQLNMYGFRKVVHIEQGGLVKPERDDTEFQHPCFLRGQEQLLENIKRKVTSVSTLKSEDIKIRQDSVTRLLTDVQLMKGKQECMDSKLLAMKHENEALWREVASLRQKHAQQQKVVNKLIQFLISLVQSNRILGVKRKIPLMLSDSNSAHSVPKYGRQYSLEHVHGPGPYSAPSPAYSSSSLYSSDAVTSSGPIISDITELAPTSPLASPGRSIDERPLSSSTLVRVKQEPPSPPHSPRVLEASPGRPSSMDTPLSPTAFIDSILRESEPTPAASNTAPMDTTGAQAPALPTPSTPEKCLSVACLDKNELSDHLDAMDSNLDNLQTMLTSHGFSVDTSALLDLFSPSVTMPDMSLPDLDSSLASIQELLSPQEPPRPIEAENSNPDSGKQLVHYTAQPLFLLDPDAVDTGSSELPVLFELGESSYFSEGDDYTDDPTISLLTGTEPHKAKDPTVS

INS1 = assay: beta cell apoptosis inhibitors, cytokine rescue, dose response, luminescence, retest (AID 449756); assay type: functional, cell-based; conditions: Rattus norvegicus;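 note: cell death triggered by IL-1 beta plus TNF-alpha plus IFN-gamma mixture; protective hits raise ATP signal compared with cytokine alone wells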
[10] = Shn3 3'UTR reporter inhibitors, dose response, cell-based, Clone20 osteoblasts, firefly luciferase, cherry-picked (AID 624132); assay type: functional;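 note: firefly luciferase luminescence from reporter carrying the Shn3 3'UTR in osteoblasts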
[11] = inhibitors of intracellular T. cruzi replication, confirmation, NIH3T3 host cells, beta-gal luminescence (AID 2044); assay type: functional, cell-based;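 note: intracellular parasites grown in NIH/3T3 mouse fibroblasts as host cells; luminescent beta-galactosidase reporter signal from transgenic T. cruzi replicating inside host cells; inhibitors lower the luminescence signal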
[12] = cytotoxicity toward NIH3T3 fibroblasts, dose response, counter-screen, cell-based, ATP luminescence, mouse fibroblasts (AID 2010); assay type: functional;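 note: cells exposed to compound for about 90 hours before reading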
[13] = HEp-2 cell cytotoxicity, dose response, cytotoxicity control for RSV inhibitor project, HTS (AID 2410); assay type: functional; conditions: human respiratory syncytial virus

Nonstructural protein 1, sequence (Q194T2 whole entry): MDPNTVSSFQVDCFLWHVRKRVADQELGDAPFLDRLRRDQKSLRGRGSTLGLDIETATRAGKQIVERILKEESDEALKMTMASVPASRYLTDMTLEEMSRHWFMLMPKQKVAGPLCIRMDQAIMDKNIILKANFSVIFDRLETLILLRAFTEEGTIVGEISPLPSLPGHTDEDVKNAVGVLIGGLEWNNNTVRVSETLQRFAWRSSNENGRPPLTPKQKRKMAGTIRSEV
Cytochrome P450 3A4, sequence (P08684 whole entry): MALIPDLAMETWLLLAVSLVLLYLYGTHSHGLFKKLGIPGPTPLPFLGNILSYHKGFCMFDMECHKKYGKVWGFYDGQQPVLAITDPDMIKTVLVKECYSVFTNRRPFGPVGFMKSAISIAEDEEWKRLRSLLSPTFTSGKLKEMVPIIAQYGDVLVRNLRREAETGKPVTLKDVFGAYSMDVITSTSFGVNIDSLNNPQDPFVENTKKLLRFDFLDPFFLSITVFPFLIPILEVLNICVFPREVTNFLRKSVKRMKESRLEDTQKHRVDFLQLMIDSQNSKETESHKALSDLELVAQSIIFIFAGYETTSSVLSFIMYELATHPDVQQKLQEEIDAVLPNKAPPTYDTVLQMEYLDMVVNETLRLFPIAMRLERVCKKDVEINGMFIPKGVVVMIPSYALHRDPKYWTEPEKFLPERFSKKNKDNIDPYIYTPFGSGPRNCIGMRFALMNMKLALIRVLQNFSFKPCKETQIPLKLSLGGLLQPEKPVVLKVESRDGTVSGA

| Compound | EC50 [1] | EC50 (Streptococcus) | AC50 [3] | EC50 (Protein RecA) | also measured |
| --- | --- | --- | --- | --- | --- |
| FC(F)(F)c1ccc(C2[C@H]3CN(Cc4cccnc4)[C@H](c4ccccc4)C34CC2(c2cccnc2)C4)cc1 (some centres not stated) | 2.85 µM (active) | 12 µM (active) | 3.46 µM (active) | 24.1 µM (active) | EC50 (Streptokinase A): 6.65 µM (active); AC50 [2]: 3.07 µM (active) |
| Fc1cccc2sc(Nc3nc4cc5c(cc4s3)OCO5)nc12 | > 150 µM (not active) | > 150 µM (not active) | – | – | EC50 (Streptokinase A): > 150 µM (not active); CC50 [4]: > 40 µM (active) |
| C/C(N)=C(/C#N)C(=O)CSc1nc2scc(-c3ccccc3)c2c(=O)n1C | 1.8 µM (active) | 11.9 µM (active) | – | – | EC50 (Streptokinase A): > 150 µM (not active) |
| Nc1ccc(-c2cn3cccnc3n2)cc1 | > 150 µM (not active) | > 150 µM (not active) | – | – | EC50 (Streptokinase A): > 150 µM (not active) |
| O=C(Cn1nnc(-c2ccc(NC(=O)c3ccccc3F)cc2)n1)NCc1ccc(F)cc1 | – | – | – | – | IC50 [5]: 4.75 µM (active) |
| CCN(c1ccc(NC(=O)COC(=O)c2ccc3ccccc3n2)cc1)C(C)C | – | – | – | – | IC50 (Nonstructural protein 1): 93.5 µM (active); AC50 (Cytochrome P450 3A4): 39.8 µM (inconclusive) |
| Cc1n[nH]c(O)c1C(c1ccc(O)c(Br)c1)c1c(C)n[nH]c1O | – | – | 0.326 µM (active) | 0.232 µM (active) | – |
| OCCN(Cc1cccnc1)Cc1ccccn1 | – | – | – | – | IC50 (Nonstructural protein 1): 4.64 µM (active) |
| NCCCn1c(C(=O)c2cc(Cl)c(N)c(Cl)c2)c2ccc([N+](=O)[O-])cc2[n+]1[O-] | 2.8 µM (active) | 5.08 µM (active) | – | – | EC50 [6]: 5.24 µM (active); EC50 [7]: > 120 µM (not active); EC50 [8]: 2.06 µM (active); EC50 (Streptokinase A): > 150 µM (not active); EC50 [9]: 46.8 µM (active); AC50 (INS1): 4.16 µM (active) |
| CN(C)S(=O)(=O)c1cccc(NC(=O)COC(=O)/C=C/c2ccco2)c1 | – | – | – | – | IC50 [5]: 21.1 µM (active) |
| Cc1csc(=O)n1CC(=O)OCC(=O)c1c(N)n(C)c(=O)n(C)c1=O | – | – | – | – | AC50 [10]: 27.1 µM (active) |
| Cc1c(Cl)c(C(F)F)nn1CC(=O)NC1C(=O)N2C(C(=O)O)=C(CSc3nnnn3C)CSC12 (configuration not stated) | < 0.06 µM (active) | 0.106 µM (active) | – | – | IC50 [5]: 6.48 µM (active) |
| N#CC(c1ccccc1)c1cnccn1 (configuration not stated) | – | – | > 380 µM (inactive) | > 380 µM (inactive) | – |
| CCCCN1CC(COCc2ccccc2)Oc2cccc(Oc3cc(C)c(C)c(C)c3)c2S1(=O)=O (configuration not stated) | – | – | – | – | AC50 [10]: 9.16 µM (active) |
| CC(C)(C)c1ccc(S(=O)(=O)N2CCC(c3nc4cc(Cl)ccc4[nH]3)CC2)cc1 | 5.2 µM (active) | 45.8 µM (active) | – | – | EC50 (Streptokinase A): 4.13 µM (active); EC50 [11]: 2.97 µM (active); EC50 [12]: > 60 µM (not active) |
| O=C(N/N=C/c1ccc(-c2ccccc2[N+](=O)[O-])o1)[C@H]1C[C@@H]1c1ccccc1 | – | – | 8.14 µM (active) | 18.9 µM (active) | CC50 [13]: 18.3 µM (active) |
| N#CC1=C(N)Oc2[nH]nc(-c3cccs3)c2C1c1ccncc1 (configuration not stated) | – | – | 31 µM (active) | 5.36 µM (active) | – |
| O=C(CSc1nnc(-c2ccc(S(=O)(=O)N3CCCC3)cc2)o1)NCc1ccco1 | – | – | – | – | IC50 [5]: 16.3 µM (active) |
| COc1ccc2c(c1)[N+](C)(C)C(C)(C)C=C2C | – | – | – | – | IC50 [5]: 3.14 µM (active) |
| CC1=NN(c2ccccc2)C(=O)C1 [EDARAVONE] | – | – | 2.75 µM (active) | 2.95 µM (active) | – |
| CCCOC(=O)c1ccc(OC(=O)c2ccco2)cc1 | – | – | 13 µM (active) | 11.8 µM (active) | – |
| Oc1cccc(Nc2nc(-c3ccccc3Cl)nc3ccccc23)c1 | – | – | 138 µM (active) | > 380 µM (inactive) | CC50 [13]: 27.1 µM (active) |
